One may read the IC50 as the point on the concentration scale where inhibition reaches its midpoint. The Ki is the equilibrium dissociation constant of an inhibitor or competing ligand from its target.

Molecules are shown by their SMILES. Where two headings read alike, the source gives them in different places.

Data on 4 compounds can be found in publication PMC9916969 (International Journal of Molecular Sciences, 2023).

For data set [1] the following is noted: ethanol, difference spectra, two bands, cited from earlier work.
Another data set deals with porcine liver CES. Description: In vitro CES inhibition (4-NPA substrate). Format: biochemical. To be noted: compound 20 µM, n.a. = not active. In outline:
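Esterase sources were human erythrocyte AChE, equine serum BChE and porcine liver CES, with 4-NPA as CES substrate. Chromophore absorbance read on a plate reader. Compounds screened first at a single 20 µM concentration.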

The conditions of data set [2]: ethanol, difference spectra, two bands, cited from earlier work. The source holds these as a separate data set.
The nature of the next data set: in vitro. Format: cell-based. To be noted: mouse. The protocol: […]. Accordingly, in the present work, we paid special attention to the study of the cytotoxic activity of compounds on primary cultures of mouse hepatocytes using standard MTT methodology.
The cytotoxicity of the compounds was evaluated using a primary culture of mouse hepatocytes isolated at the Center for Biotechnology and Bioengineering, Ural Federal University, Ekaterinburg, Russia, according to the standard method. Cells were seeded in 96-well plates in the inoculum dose of 1 × 10^4 cells/mL and cultured for 24 h in Dulbecco’s Modified Eagle Medium (DMEM), with 1% (w/v) glutamine in the presence of 10% (v/v) fetal bovine serum and gentamicin (50 mg/L) at 37 °C, with a humidified atmosphere of 5% (v/v) CO2. Cell viability was assessed using the standard MTT assay. The compounds were dissolved in DMSO and then in a nutrient medium, after which they were added to the wells with cells at final concentrations of 10^−7, 10^−6, 10^−5, and 10^−4 M. Hepatocytes were exposed to test compounds for 24 h at 37 °C, 95% relative humidity and 5% (v/v) CO2 atmosphere. After incubation, the medium was replaced with 100 μL of fresh medium containing MTT (0.5 mg/mL). The plates were then incubated at 37°C in a CO2 incubator for 2 h. Then the medium with MTT was removed and DMSO was added to dissolve the formazan crystals.
The results of the MTT assay were evaluated on a Tecan Infinite M200 PRO (Tecan Austria GmbH, Grödig, Austria) plate spectrophotometer at 570 nm by comparing the optical density of a formazan solution in the assay and control wells. The cell viability was expressed as the percentage of untreated control. The results were obtained from three independent experiments performed in six replicates. The IC50 (μM) values were calculated by the AAT Bioquest-calculator: (https://www.aatbio.com/tools/ic50-calculator, accessed on 1 December 2022) and expressed as a mean ± standard error of the mean (SEM). Statistical analysis was carried out using Microsoft Excel 2007 (Microsoft Corporation, Redmond, WA, USA) and Statistica 2009 (Tulsa, OK, USA) programs.

For data set [3] the following is noted: ethanol, difference spectra, two bands, cited from earlier work. The source holds these as a separate data set.
Data set [4] in a line: Metal chelation by UV-Vis spectroscopy, Cu2+. The note with it: ethanol, 25 °C; compound and metal 40 μM; difference spectra; two bands per compound.
Data set [5] can be described thus: Metal chelation by UV-Vis spectroscopy, Zn2+. The note with it: ethanol, 25 °C; compound and metal 40 μM; difference spectra; two bands per compound.
A further data set in a line: FRAP assay. The note with it: Trolox equivalents; 60 min, 37 °C; n.a. = not active.
Another data set deals with T1, eqBChE (Equus caballus, UniProt P81908).
T1 construct: human erythrocyte AChE, equine serum BChE, and porcine liver CES were used; purchased Sigma-Aldrich; host or cells: equine serum (tissue-derived)
T1 sequence (P81908 whole entry): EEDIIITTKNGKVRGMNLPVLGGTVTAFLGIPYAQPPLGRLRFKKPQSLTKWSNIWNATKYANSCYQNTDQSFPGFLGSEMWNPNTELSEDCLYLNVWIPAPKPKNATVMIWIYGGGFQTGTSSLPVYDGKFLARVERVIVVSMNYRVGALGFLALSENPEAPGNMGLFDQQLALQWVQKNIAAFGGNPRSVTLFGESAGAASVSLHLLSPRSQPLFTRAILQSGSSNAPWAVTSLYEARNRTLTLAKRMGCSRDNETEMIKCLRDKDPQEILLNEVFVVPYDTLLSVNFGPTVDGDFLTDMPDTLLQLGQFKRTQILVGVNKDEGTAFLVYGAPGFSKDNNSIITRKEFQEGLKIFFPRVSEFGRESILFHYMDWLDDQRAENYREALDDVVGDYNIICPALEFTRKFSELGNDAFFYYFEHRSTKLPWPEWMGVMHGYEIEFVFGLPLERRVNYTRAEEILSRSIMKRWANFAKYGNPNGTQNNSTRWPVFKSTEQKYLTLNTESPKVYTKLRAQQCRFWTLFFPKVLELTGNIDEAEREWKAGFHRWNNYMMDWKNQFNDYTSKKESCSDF
In words: Kinetic study of BChE inhibition (Lineweaver-Burk). Format: biochemical. The note with it: for αKi (non-competitive inhibition constant), eqBChE: mixed-type inhibition, mean ± SEM; for Ki: read-out: Ki (competitive inhibition constant), eqBChE. As for the experimental part:
Similar results were obtained for other tested compounds (Figures S61 and S62). The obtained values of inhibition constants (Ki = competitive component and αKi = non-competitive component) are shown in Table 2.
(§1) We assessed the mechanisms of AChE and BChE inhibition by performing a thorough analysis of enzyme kinetics. After a 5 min incubation at 25 °C (for temperature equilibration) with three increasing concentrations of inhibitor and six decreasing substrate concentrations, the residual enzyme activity was measured as described above for enzymatic assays.

Another data set has as its target T2, AChE (Homo sapiens, UniProt P22303).
T2 construct: human erythrocyte AChE, equine serum BChE, and porcine liver CES were used; purchased Sigma-Aldrich; host or cells: human erythrocytes (tissue-derived)
In words: Kinetic study of AChE inhibition (Lineweaver-Burk). Format: biochemical. To be noted: for αKi (non-competitive inhibition constant), AChE: mixed-type inhibition, mean ± SEM; for Ki: read-out: Ki (competitive inhibition constant), AChE. The protocol:
as §1

[6] abbreviates: absorption band at 337, 323, 308 nm.

T2 sequence (P22303 32-617 isoform P22303-2 limits assumed): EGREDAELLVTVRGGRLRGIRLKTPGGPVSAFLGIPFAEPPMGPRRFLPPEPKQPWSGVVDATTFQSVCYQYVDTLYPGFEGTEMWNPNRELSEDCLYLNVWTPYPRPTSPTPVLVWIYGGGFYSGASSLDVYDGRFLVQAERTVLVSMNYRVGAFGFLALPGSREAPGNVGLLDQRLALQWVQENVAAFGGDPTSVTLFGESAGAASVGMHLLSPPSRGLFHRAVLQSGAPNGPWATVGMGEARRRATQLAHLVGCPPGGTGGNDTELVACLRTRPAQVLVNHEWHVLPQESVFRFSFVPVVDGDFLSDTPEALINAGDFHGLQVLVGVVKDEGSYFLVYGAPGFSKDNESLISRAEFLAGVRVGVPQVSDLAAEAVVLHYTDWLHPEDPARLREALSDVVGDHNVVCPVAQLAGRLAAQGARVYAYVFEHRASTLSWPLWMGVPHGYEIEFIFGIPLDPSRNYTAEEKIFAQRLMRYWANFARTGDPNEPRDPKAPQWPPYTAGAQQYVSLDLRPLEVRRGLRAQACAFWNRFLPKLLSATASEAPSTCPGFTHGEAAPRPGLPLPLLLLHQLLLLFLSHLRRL

On to `O=C(NCCCCCCNc1c2c(nc3ccccc13)CCCC2)c1ccccc1O` [5b], for which the “Shift of Absorbance, Zn(II)” value is listed as 254 nm in data set [1] (absorption band at 237 nm) and 351 nm in data set [1] (setting [6]). In addition, the “Inhibitory activity against CES, inhibition at 20 µM” value (shortened to “Inhibitory activity against CES”) in the data set on porcine liver CES worked out at 19.5 ± 0.9%. Also, the “Shift of Absorbance, Fe(II)” value is 254 nm in [2] (absorption band at 237 nm) and 351 nm in [2] (setting [6]). The compound also came in with a half-maximal inhibitory concentration (IC50) at 24 h in “in vitro” of 4890 ± 80 nM. Besides, the figures for the “Shift of Absorbance, Cu(II)” value in data set [3] (absorption band at 237 nm) and in data set [3] (setting [6]) were 254 nm and 352 nm, respectively.

Regarding `O=C(NCCCCCCNc1c2c(nc3ccccc13)CCCC2)c1cc(F)c(F)cc1O` [7b], the “Shift of Absorbance, Cu(II)” value in data set [4] is 253 nm. For the same compound, the “Inhibitory activity against CES” value with porcine liver CES was found to be 7.1 ± 1.0%. For the same compound, in the data set “in vitro”, the IC50 at 24 h was found to be 15160 ± 90 nM. Moreover, the “Shift of Absorbance, Zn(II)” value in data set [5] is 352 nm. The “FRAP, TE” value in “FRAP assay” came to 0.03.

On to `O=C(NCCCCCCCCNc1c2c(nc3ccccc13)CCCC2)c1cc(F)c(F)cc1O` [7c], for which the “Inhibitory activity against CES” value in the data set on porcine liver CES is recorded as 8.6 ± 0.7%. Also, on eqBChE, the “αKi (non-competitive inhibition constant), eqBChE” value is reported as 0.0243 ± 0.0001 µM and the Ki worked out at 17.3 ± 0.6 nM. At AChE, the “αKi (non-competitive inhibition constant), AChE” value was 0.134 ± 0.009 µM and the Ki was found to be 125 ± 3 nM. Besides, the “FRAP, TE” value in “FRAP assay” came to 0.06.

As to `Oc1ccccc1/C=N/CCCCCCCCNc1c2c(nc3ccccc13)CCCC2` [10c], in the data set on porcine liver CES, the “Inhibitory activity against CES” value was 23.0 ± 0.3%. For the same compound, the “Type of BChE inhibition” value at eqBChE (Lineweaver–Burk analysis) is given as “mixed type of inhibition”. Also, at eqBChE, the “αKi (non-competitive inhibition constant), eqBChE” value amounted to 0.0152 ± 0.0009 µM and the Ki came to 8.4 ± 0.6 nM. The “Type of AChE inhibition” value on AChE (Lineweaver–Burk analysis) was “mixed type of inhibition”. At AChE, the “αKi (non-competitive inhibition constant), AChE” value is reported as 0.0644 ± 0.0040 µM and the Ki was 29.9 ± 2.1 nM. The same compound came in with an IC50 at 24 h in the data set “in vitro” of 5870 ± 140 nM.
